Here are results for 24 molecules from patent US12281108B2, “Pyrrolidinone derivatives as formyl peptide 2 receptor agonists” (BRISTOL-MYERS SQUIBB COMPANY, priority 2018, dated 2025).

For the first experiment, the target named is T1, human FPR2 receptors (Homo sapiens, UniProt P25090).
T1 sequence (P25090 1-351): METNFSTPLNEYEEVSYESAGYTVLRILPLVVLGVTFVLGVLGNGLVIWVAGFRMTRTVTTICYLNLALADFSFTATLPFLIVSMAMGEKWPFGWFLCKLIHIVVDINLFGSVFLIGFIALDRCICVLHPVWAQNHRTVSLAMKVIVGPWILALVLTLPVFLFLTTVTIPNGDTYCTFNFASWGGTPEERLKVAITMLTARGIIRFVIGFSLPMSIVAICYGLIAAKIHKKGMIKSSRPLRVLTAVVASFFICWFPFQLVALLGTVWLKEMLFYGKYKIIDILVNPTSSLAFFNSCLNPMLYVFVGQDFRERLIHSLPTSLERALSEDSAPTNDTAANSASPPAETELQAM
Briefly: FPR2 cAMP assay in CHO cells overexpressing human FPR2 (HTRF). The settings on record: CHO cells overexpressing human FPR2; forskolin 5 μM; inhibition of cAMP production; read-out: hFPR2 cAMP2 EC50. The class given is cell-based. The text has this: N-formyl peptide receptors (FPRs) are a family of chemo attractant receptors that facilitate leukocyte response during inflammation. FPRs belong to the seven-transmembrane G protein-coupled receptor superfamily and are linked to inhibitory G-proteins (Gi). Three family members (FPR1, FPR2 and FPR3) have been identified in humans and are predominantly found in myeloid cells with varied distribution and have also been reported in multiple organs and tissues. After agonist binding, the FPRs activate a multitude of physiological pathways, such as intra cellular signaling transduction, Ca^2+ mobilization and transcription. The family interacts with a diverse set of ligands that includes proteins, polypeptides and fatty acid metabolites which activate both pro-inflammatory and pro-resolution downstream responses. FPR2 and FPR1 Cyclic Adenosine Monophosphate (cAMP) Assays were used to measure the in vitro activity of the compounds disclosed in this application.
FPR2 and FPR1 Cyclic Adenosine Monophosphate (cAMP) Assays. A mixture of forskolin (5 μM final for FPR2 or 10 μM final for FPR1) and IBMX (200 μM final) were added to 384-well Proxiplates (Perkin-Elmer) pre-dotted with test compounds in DMSO (1% final) at final concentrations in the range of 0.020 nM to 100 μM. Chinese Hamster Ovary cells (CHO) overexpressing human FPR1 or human FPR2 receptors were cultured in F-12 (Ham's) medium supplemented with 10% qualified FBS, 250 μg/ml zeocin and 300 μg/ml hygromycin (Life Technologies). Reactions were initiated by adding 2,000 human FPR2 cells per well or 4,000 human FPR1 cells per well in Dulbecco's PBS (with calcium and magnesium) (Life Technologies) supplemented with 0.1% BSA (Perkin-Elmer). The reaction mixtures were incubated for 30 min at room temperature. The level of intracellular cAMP was determined using the HTRF HiRange cAMP assay reagent kit (Cisbio) according to manufacturer's instruction. Solutions of cryptate conjugated anti-cAMP and d2 flurorophore-labelled cAMP were made in a supplied lysis buffer separately. Upon completion of the reaction, the cells were lysed with equal volume of the d2-cAMP solution and anti-cAMP solution. After a 1-h room temperature incubation, time-resolved fluorescence intensity was measured using the Envision (Perkin-Elmer) at 400 nm excitation and dual emission at 590 nm and 665 nm. A calibration curve was constructed with an external cAMP standard at concentrations ranging from 1 μM to 0.1 pM by plotting the fluorescent intensity ratio from 665 nm emission to the intensity from the 590 nm emission against cAMP concentrations. The potency and activity of a compound to inhibit cAMP production was then determined by fitting to a 4-parametric logistic equation from a plot of cAMP level versus compound concentrations.
(In general: Changes in cAMP serve as a functional read-out for many G protein-coupled receptors.)
In general, EC50 refers to the concentration at which the effect is half-maximal. For the molecule `COc1cc(F)c([C@@H]2CNC(=O)[C@H]2Nc2cc(-c3ccc(Cl)cc3)on2)c(F)c1` [Example 21, (3S,4R)-3-{[5-(4-chlorophenyl)-1,2-oxazol-3-yl]amino}-4-(2,6-difluoro-4-methoxyphenyl)pyrrolidin-2-one], the EC50 is 10 nM.

Still in this experiment, the particulars now being: hFPR2 assay; potency bins; read-out: hFPR2 agonist activity EC50.
For `COc1cc(F)c([C@@H]2CNC(=O)[C@H]2Nc2nc3ccc(Cl)cc3o2)c(F)c1` [Example 1, (3S,4R)-3-[(6-chloro-1,3-benzoxazol-2-yl)amino]-4-(2,6-difluoro-4-methoxyphenyl)pyrrolidin-2-one], the EC50 was in the range of 150 to 1000 nM. As to `COc1cc(F)c([C@@H]2CNC(=O)[C@H]2Nc2nnc(-c3ccc(Cl)cc3)s2)c(F)c1` [Example 2, (3S,4R)-3-{[5-(4-chlorophenyl)-1,3,4-thiadiazol-2-yl]amino}-4-(2,6-difluoro-4-methoxyphenyl)pyrrolidin-2-one], the half-maximal effective concentration (EC50) is ≤ 40 nM. With `COc1cc(F)c([C@@H]2CNC(=O)[C@H]2Nc2nnc(-c3ccc(Cl)cc3)o2)c(F)c1` [Example 3, (3S,4R)-3-{[5-(4-chlorophenyl)-1,3,4-oxadiazol-2-yl]amino}-4-(2,6-difluoro-4-methoxyphenyl)pyrrolidin-2-one], the EC50 was ≤ 40 nM. Regarding `COc1cc(F)c([C@@H]2CNC(=O)[C@H]2Nc2nnc(-c3ccccc3)o2)c(F)c1` [Example 4, (3S,4R)-4-(2,6-difluoro-4-methoxyphenyl)-3-[(5-phenyl-1,3,4-oxadiazol-2-yl)amino]pyrrolidin-2-one], the EC50 is 150 to 1000 nM. With `COc1cc(F)c([C@@H]2CNC(=O)[C@H]2Nc2nnc(-c3ccc(F)c(F)c3)o2)c(F)c1` [Example 5, (3S,4R)-4-(2,6-difluoro-4-methoxyphenyl)-3-{[5-(3,4-difluorophenyl)-1,3,4-oxadiazol-2-yl]amino}pyrrolidin-2-one], the EC50 was in the range of 150 to 1000 nM. For the molecule `COc1cc(F)c([C@@H]2CNC(=O)[C@H]2Nc2nnc(-c3cccnc3)o2)c(F)c1` [Example 6, (3S,4R)-4-(2,6-difluoro-4-methoxyphenyl)-3-{[5-(pyridin-3-yl)-1,3,4-oxadiazol-2-yl]amino}pyrrolidin-2-one], the concentration for a half-maximal effect (EC50) lay within 150 to 1000 nM. With `COc1cc(F)c([C@@H]2CNC(=O)[C@H]2Nc2nnc(-c3ccc(OC(F)(F)F)cc3)o2)c(F)c1` [Example 7, (3S,4R)-4-(2,6-difluoro-4-methoxyphenyl)-3-({5-[4-(trifluoromethoxy)phenyl]-1,3,4-oxadiazol-2-yl}amino)pyrrolidin-2-one], the concentration for a half-maximal effect (EC50) is 40 to 150 nM.

With `COc1cc(F)c([C@@H]2CNC(=O)[C@H]2Nc2nnc(-c3ccc(C(F)(F)F)cc3)o2)c(F)c1` [Example 8, (3S,4R)-4-(2,6-difluoro-4-methoxyphenyl)-3-({5-[4-(trifluoromethyl)phenyl]-1,3,4-oxadiazol-2-yl}amino)pyrrolidin-2-one], the EC50 was ≤ 40 nM.

Regarding `COc1cc(F)c([C@@H]2CNC(=O)[C@H]2Nc2nnc(-c3ccc(C#N)cc3)o2)c(F)c1` [Example 9, 4-(5-{[(3S,4R)-4-(2,6-difluoro-4-methoxyphenyl)-2-oxopyrrolidin-3-yl]amino}-1,3,4-oxadiazol-2-yl)benzonitrile], the concentration for a half-maximal effect (EC50) lay within 150 to 1000 nM. In the case of `COc1cc(F)c([C@@H]2CNC(=O)[C@H]2Nc2nnc(-c3ccc(C(F)(F)F)nc3)o2)c(F)c1` [Example 10, (3S,4R)-4-(2,6-difluoro-4-methoxyphenyl)-3-({5-[6-(trifluoromethyl)pyridin-3-yl]-1,3,4-oxadiazol-2-yl}amino)pyrrolidin-2-one], the EC50 was ≤ 40 nM. Same read-out and setting: to `COc1cc(F)c([C@@H]2CNC(=O)[C@H]2Nc2nnc(-c3ccc(C)cc3)o2)c(F)c1` [Example 11, (3S,4R)-4-(2,6-difluoro-4-methoxyphenyl)-3-{[5-(4-methylphenyl)-1,3,4-oxadiazol-2-yl]amino}pyrrolidin-2-one] belongs 150 to 1000 nM. As for `COc1cc(F)c([C@@H]2CNC(=O)[C@H]2Nc2nnc(-c3ccc(F)cc3)o2)c(F)c1` [Example 12, (3S,4R)-4-(2,6-difluoro-4-methoxyphenyl)-3-{[5-(4-fluorophenyl)-1,3,4-oxadiazol-2-yl]amino}pyrrolidin-2-one], the EC50 is 40 to 150 nM. In the case of `COc1cc(F)c([C@@H]2CNC(=O)[C@H]2Nc2nnc(-c3ccc(-n4cccn4)cc3)o2)c(F)c1` [Example 13, (3S,4R)-4-(2,6-difluoro-4-methoxyphenyl)-3-({5-[4-(1H-pyrazol-1-yl)phenyl]-1,3,4-oxadiazol-2-yl}amino)pyrrolidin-2-one], the EC50 lay within 150 to 1000 nM. On the same count and under the same terms, to `COc1cc(F)c([C@@H]2CNC(=O)[C@H]2Nc2nnc(-c3ccc(C(F)(F)F)cn3)o2)c(F)c1` [Example 14, (3S,4R)-4-(2,6-difluoro-4-methoxyphenyl)-3-({5-[5-(trifluoromethyl)pyridin-2-yl]-1,3,4-oxadiazol-2-yl}amino)pyrrolidin-2-one] belongs 150 to 1000 nM.

Take `COc1cc(F)c([C@@H]2CNC(=O)[C@H]2Nc2nnc(-c3ccc(Cl)cc3F)o2)c(F)c1` [Example 15, (3S,4R)-3-{[5-(4-chloro-2-fluorophenyl)-1,3,4-oxadiazol-2-yl]amino}-4-(2,6-difluoro-4-methoxyphenyl)pyrrolidin-2-one]: the EC50 fell in the range of 150 to 1000 nM. As for `COc1cc(F)c([C@@H]2CNC(=O)[C@H]2Nc2nnc(-c3ccc(Cl)nc3)o2)c(F)c1` [Example 16, (3S,4R)-3-{[5-(6-chloropyridin-3-yl)-1,3,4-oxadiazol-2-yl]amino}-4-(2,6-difluoro-4-methoxyphenyl)pyrrolidin-2-one], the EC50 is ≤ 40 nM. On the same count and under the same terms, under `COc1cc(F)c([C@@H]2CNC(=O)[C@H]2Nc2nnc(-c3ccc(C(F)F)cc3)o2)c(F)c1` [Example 17, (3S,4R)-4-(2,6-difluoro-4-methoxyphenyl)-3-({5-[4-(difluoromethyl)phenyl]-1,3,4-oxadiazol-2-yl}amino)pyrrolidin-2-one] stands 40 to 150 nM; under `COc1cc(F)c([C@@H]2CN(C)C(=O)[C@H]2Nc2nnc(-c3ccc(Cl)cc3)o2)c(F)c1` [Example 20, (3S,4R)-3-{[5-(4-chlorophenyl)-1,3,4-oxadiazol-2-yl]amino}-4-(2,6-difluoro-4-methoxyphenyl)-1-methylpyrrolidin-2-one], ≤ 40 nM. For the molecule `COc1cc(F)c([C@@H]2CNC(=O)[C@H]2Nc2cc(-c3ccc(OC(F)(F)F)cc3)on2)c(F)c1` [Example 23, (3S,4R)-4-(2,6-difluoro-4-methoxyphenyl)-3-({5-[4-(trifluoromethoxy)phenyl]-1,2-oxazol-3-yl}amino)pyrrolidin-2-one], the EC50 was ≤ 40 nM. Turning to `COc1cc(F)c([C@@H]2CNC(=O)[C@H]2Nc2ncc(-c3ccc(Cl)cc3)o2)c(F)c1` [Example 24, (3S,4R)-3-{[5-(4-chlorophenyl)-1,3-oxazol-2-yl]amino}-4-(2,6-difluoro-4-methoxyphenyl)pyrrolidin-2-one], the EC50 lay within 150 to 1000 nM. Take `COc1cc(F)c([C@@H]2CNC(=O)[C@H]2Nc2nnc(C3CCC(F)(F)CC3)o2)c(F)c1` [Example 25, (3S,4R)-4-(2,6-difluoro-4-methoxyphenyl)-3-{[5-(4,4-difluorocyclohexyl)-1,3,4-oxadiazol-2-yl]amino}pyrrolidin-2-one]: the 50% effective concentration (EC50) lay in the range of 150 to 1000 nM. With `COc1cc(F)c([C@@H]2CNC(=O)[C@H]2Nc2nnc(-c3ccc([S+]([O-])C(F)(F)F)cc3)o2)c(F)c1` (stereo partly drawn) [Example 26, (3S,4R)-4-(2,6-difluoro-4-methoxyphenyl)-3-{[5-(4-trifluoromethanesulfinylphenyl)-1,3,4-oxadiazol-2-yl]amino}pyrrolidin-2-one], the concentration giving a half-maximal response (EC50) is 150 to 1000 nM. In the case of `COc1cc(F)c([C@@H]2CNC(=O)[C@H]2Nc2nnc(-c3ccc(SC(F)(F)F)cc3)s2)c(F)c1` [Example 29, (3S,4R)-4-(2,6-difluoro-4-methoxyphenyl)-3-[(5-{4-[(trifluoromethyl)sulfanyl]phenyl}-1,3,4-thiadiazol-2-yl)amino]pyrrolidin-2-one], the EC50 lay in the range of 40 to 150 nM.
